From the NIST ThermoML archive (doi:10.1016/j.jct.2015.12.025)

Experiments:
[1] = refractive index (Na D-line) (dimensionless); xn = mol fraction of the nth substance listed; conditions: 102 kPa, Liquid, Standard Abbe refractometry
[2] = xn = mol fraction of the nth substance listed; conditions: 102 kPa, Liquid, Vibrating tube method

C[Si]1(CCC(F)(F)F)O[Si](C)(CCC(F)(F)F)O[Si](C)(CCC(F)(F)F)O1 (stereo not given) + CCc1ccccc1
Conditions	mass density, 308.15 K [kg/m3]	mass density, 313.15 K [kg/m3]	mass density, 318.15 K [kg/m3]	mass density, 323.15 K [kg/m3]	refractive index, 308.15 K	refractive index, 313.15 K	refractive index, 318.15 K	refractive index, 323.15 K
[1], x1 = 0.05	–	–	–	–	1.46829	1.46563	1.46295	1.46034
[1], x1 = 0.1	–	–	–	–	1.4527	1.45013	1.44755	1.445
[1], x1 = 0.15	–	–	–	–	1.43984	1.43731	1.43479	1.43233
[1], x1 = 0.1967	–	–	–	–	1.42972	1.42722	1.42478	1.42233
[1], x1 = 0.25	–	–	–	–	1.41987	1.41742	1.41503	1.41266
[1], x1 = 0.2998	–	–	–	–	1.41202	1.40962	1.40725	1.40493
[1], x1 = 0.35	–	–	–	–	1.40515	1.40278	1.40047	1.39817
[1], x1 = 0.377	–	–	–	–	1.40179	1.39946	1.39713	1.39485
[1], x1 = 0.4437	–	–	–	–	1.39447	1.39219	1.38991	1.38768
[1], x1 = 0.5001	–	–	–	–	1.38911	1.38686	1.38464	1.38243
[1], x1 = 0.5492	–	–	–	–	1.38496	1.38275	1.38053	1.37836
[1], x1 = 0.5994	–	–	–	–	1.3811	1.37891	1.37672	1.37458
[1], x1 = 0.6499	–	–	–	–	1.3776	1.37545	1.37326	1.37112
[1], x1 = 0.6997	–	–	–	–	1.37445	1.37234	1.37017	1.36807
[1], x1 = 0.7502	–	–	–	–	1.37152	1.36941	1.36729	1.36521
[1], x1 = 0.7999	–	–	–	–	1.36888	1.36677	1.36471	1.36262
[1], x1 = 0.8498	–	–	–	–	1.36642	1.36437	1.36228	1.36025
[1], x1 = 0.9002	–	–	–	–	1.36413	1.3621	1.36007	1.35801
[1], x1 = 0.9498	–	–	–	–	1.36206	1.36004	1.35799	1.356
[1], x1 = 1	–	–	–	–	1.36011	1.35808	1.35608	1.35407
[2], x1 = 0.05	905.01	900.4	895.69	890.85	–	–	–	–
[2], x1 = 0.1	947.97	943.16	938.39	933.5	–	–	–	–
[2], x1 = 0.15	984.47	979.55	974.46	969.52	–	–	–	–
[2], x1 = 0.1967	1013.95	1008.92	1003.57	998.43	–	–	–	–
[2], x1 = 0.25	1043.11	1037.94	1032.55	1027.19	–	–	–	–
[2], x1 = 0.2998	1066.87	1061.66	1056.21	1050.74	–	–	–	–
[2], x1 = 0.35	1088.17	1082.82	1077.22	1071.74	–	–	–	–
[2], x1 = 0.377	1098.7	1093.23	1087.75	1082.06	–	–	–	–
[2], x1 = 0.4437	1121.97	1116.36	1110.93	1104.98	–	–	–	–
[2], x1 = 0.5001	1139.32	1133.58	1127.97	1121.88	–	–	–	–
[2], x1 = 0.5492	1152.93	1147.02	1141.17	1135.21	–	–	–	–
[2], x1 = 0.5994	1165.69	1159.63	1153.7	1147.6	–	–	–	–
[2], x1 = 0.6499	1177.11	1171.2	1165.14	1158.94	–	–	–	–
[2], x1 = 0.6997	1187.73	1181.59	1175.49	1169.24	–	–	–	–
[2], x1 = 0.7502	1197.39	1191.42	1185.03	1178.51	–	–	–	–
[2], x1 = 0.7999	1206.57	1200.31	1193.75	1187.44	–	–	–	–
[2], x1 = 0.8498	1214.84	1208.54	1202.09	1195.57	–	–	–	–
[2], x1 = 0.9002	1222.62	1216.17	1209.67	1203.21	–	–	–	–
[2], x1 = 0.9498	1229.79	1223.31	1216.79	1210.24	–	–	–	–
[2], x1 = 1	1236.63	1230.05	1223.55	1216.99	–	–	–	–
